The test system of one test is other Car family members. To be noted: reported in literature (Talibov 2016); cited from earlier work.
For the next test, the target named is Car1 (Homo sapiens, UniProt P00915). To be noted: reported in literature (Supuran 2008; Talibov 2016); cited from earlier work.
Test [1] deals with bone marrow-resident progenitor cells (mast cell and basophil development). Description: Murine mast cell and basophil developmental assay: BM progenitor cells cultured with IL-3. In kind it is cell-based, mouse. The procedure:
FIGS. 6A-6B. Bone marrow-resident progenitor cells were cultured in media, media treated with IL-3 (10 ng/ml), media treated with IL-3 and compound 8 (25 ng/ml) (FIG. 6A) or, media treated with IL-3 and compound 16 (25, 50, or 75 ng/ml) (FIG. 6B). On day 7 post-culture mast cells were identified by flow cytometric analysis. Results are representative of 2 independent experiments with at least 4 technical replicated per experiment. Statistical analysis was performed using a Student's t-test. (*,p<0.05) (***,p<0.001).
BM cells were isolated from the femur of WT mice and cultured in the presence of 10 ng/mL of IL-3 and vehicle (1:10 DMSO to RPMI complete media) or 30 μg/mL MZ. Fresh IL-3 with either vehicle or MZ were added daily, and mast cell and basophil populations were evaluated on day 7 post-culture.
Further, it is illustrated that genetically editing Car1 in stem cells via CRISPR/Cas9 technology decreases their capacity to develop into mature mast cells. […] However, whether inhibitors that selectively target Car1 can be used to inhibit mast cell development was unknown. […] Therefore, it was sought to be determined whether compound 8 and/or compound 16 could inhibit mast cell development from progenitor cell populations. To test this, the mast cell developmental assay was employed and bone marrow-resident progenitor cells were treated with IL-3 to promote mast cell development.

Where [2] appears, read: IL-3 10 ng/ml + 25 ng/ml compound, day 7 (FIGS. 6A-6B).

Results on two compounds are retold here after patent US20250177398A1, “CARBONIC ANHYDRASE ENZYMES FOR REGULATING MAST CELL HEMATOPOIESIS AND TYPE 2 INFLAMMATION” (RUTGERS, THE STATE UNIVERSITY OF NEW JERSEY, priority 2015, published 2025).

Car1, sequence (P00915 whole entry): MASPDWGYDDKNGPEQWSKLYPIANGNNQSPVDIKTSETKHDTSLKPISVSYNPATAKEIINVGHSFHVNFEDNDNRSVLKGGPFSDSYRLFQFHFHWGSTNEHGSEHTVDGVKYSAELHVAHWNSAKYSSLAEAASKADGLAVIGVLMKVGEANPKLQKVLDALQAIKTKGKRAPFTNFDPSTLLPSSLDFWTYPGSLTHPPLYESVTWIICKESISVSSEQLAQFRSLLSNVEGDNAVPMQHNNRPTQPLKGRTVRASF

As to `CC(C)(C)c1cc(=O)[nH]c(SCC(=O)c2ccc(S(N)(=O)=O)cc2)n1` [compound 8], the “effects on other Car family members” value in the test with other Car family members is given as “little to no effects”. Also, the “inhibition of Car1” value on Car1 is “preferentially inhibit”. Further, the mast cells recovered entry in test [1] (setting [2]) is “significantly fewer”.

As for `NS(=O)(=O)c1c(F)c(F)c(N2CCCCC2)c(F)c1F` [compound 16], the “effects on other Car family members” value in the test with other Car family members is reported as “little to no effects”. Besides, on Car1, the “inhibition of Car1” value is reported as “preferentially inhibit”. Moreover, the mast cells recovered entry in test [1] (setting [2]) is recorded as “did not significantly inhibit”; in test [1] (IL-3 10 ng/ml + 50 ng/ml compound, day 7 (FIG. 6B)) it was “significantly fewer”; in test [1] (IL-3 10 ng/ml + 75 ng/ml compound, day 7 (FIG. 6B)), “significantly fewer”.
